Data: patent US12552768B2, “Pyridinylpyrazole derivative or pharmaceutically acceptable salt thereof and use thereof” (INDUSTRY-UNIVERSITY COOPERATION FOUNDATION HANYANG …, priority 2021, dated 2026)

What was measured:
PLK1(h) = PLK1(h) (Homo sapiens, UniProt P53350); assay: PLK1 kinase inhibition, radiometric [33P-ATP] assay (IC50 Profiler Express); format: biochemical; conditions: for IC50: 10 μM ATP, 1 μM substrate (casein), 40 minutes at room temperature
Protocol: (§1) The analysis protocol was as follows. 1 μM substrate (casein), 10 μM ATP and PLK1(h) (5-10 mU) were incubated with 25 mM Tris pH 7.5, 0.02 mM EGTA, 0.66 mg/mL myelin basic protein, 10 mM Mg acetate and [33P-ATP] (specific activity of about 500 cpm/pmol, concentration as required) in a reaction solution with a final volume of 25 μL. The reaction was initiated by adding Mg-ATP mixture. After incubation at room temperature for 40 minutes, the reaction was stopped by adding 5 μL of a 3% phosphoric acid solution. 10 μL of the reaction solution was spotted on a P30 filter mat and washed 3 times for 5 minutes in 75 mM phosphoric acid and once in methanol prior to drying and scintillation counting. The 30 selected protein kinases were ABL1, AKT1, ALK, Aurora A, AXL, AXL (R499C), BRAF (V599E), BTK, c-MER, c-MET, c-Src, CAMKK1, CDK1/cyclin A, EGFR, ERK1, FGFR3, FYN, IGF1R, JAK3, KDR/VEGFR2, LCK, LYN, MEK1, PKA, PLK1, PLK2, PLK3, PLK4/SAK, SYK and TYRO3/SKY4.

[1] = system: 30 selected protein kinases; assay: Selected kinase profiling of 30 protein kinases (Reaction Biology Kinase Hot Spot service); format: biochemical; conditions: screening at 10 μM or 30 μM (FIG. 2)
Protocol: as §1

PLK1(h), sequence (P53350 whole entry): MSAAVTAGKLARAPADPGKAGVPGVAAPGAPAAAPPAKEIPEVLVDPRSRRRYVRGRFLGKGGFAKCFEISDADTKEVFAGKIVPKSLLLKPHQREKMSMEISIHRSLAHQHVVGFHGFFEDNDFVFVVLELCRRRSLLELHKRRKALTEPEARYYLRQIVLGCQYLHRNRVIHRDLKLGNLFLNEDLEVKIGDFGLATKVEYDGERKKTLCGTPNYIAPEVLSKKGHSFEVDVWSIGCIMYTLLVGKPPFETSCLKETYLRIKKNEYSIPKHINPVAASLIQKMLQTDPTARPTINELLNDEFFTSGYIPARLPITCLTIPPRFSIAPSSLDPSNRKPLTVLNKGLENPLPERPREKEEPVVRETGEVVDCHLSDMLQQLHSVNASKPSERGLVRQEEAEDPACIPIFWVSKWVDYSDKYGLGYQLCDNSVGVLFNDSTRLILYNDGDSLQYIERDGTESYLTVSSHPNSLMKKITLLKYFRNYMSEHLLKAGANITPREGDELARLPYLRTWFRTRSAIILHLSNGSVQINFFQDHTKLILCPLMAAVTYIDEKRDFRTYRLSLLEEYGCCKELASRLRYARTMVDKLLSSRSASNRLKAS

Compound	IC50 (PLK1(h))	inhibitory activity against PLK1 (in words) (PLK1(h))	selectivity for PLK1 over other protein kinases (in words) [1]
CN(C)Cc1ccc(COc2cn(-c3ccnc(Nc4ccccc4)c3)nc2C(N)=O)c(Cl)c1 [Compound 16, 4-((2-chloro-4-((dimethylamino)methyl)benzyl)oxy)-1-(2-(phenylamino)pyridin-4-yl)-1H-pyrazole-3-carboxamide]	1010 nM		
COc1ccccc1Nc1cc(-n2cc(OCc3ccc(CN(C)C)cc3Cl)c(C(N)=O)n2)ccn1 [Compound 18]	998 nM		
NC(=O)c1nn(-c2ccnc(Nc3ccccc3)c2)cc1OCc1ccccc1 [Compound 13a, 4-(benzyloxy)-1-(2-(phenylamino)pyridin-4-yl)-1H-pyrazole-3-carboxamide]	9890 nM		
COc1ccccc1Nc1cc(-n2cc(OCc3ccc(CO)cc3Cl)c(C(N)=O)n2)ccn1 [Compound 17]	312 nM		
NC(=O)c1nn(-c2ccnc(Nc3ccccc3)c2)cc1OCc1ccc(CO)cc1Cl [Compound 15, 4-((2-chloro-4-(hydroxymethyl)benzyl)oxy)-1-(2-(phenylamino)pyridin-4-yl)-1H-pyrazole-3-carboxamide]	219 nM	highest inhibitory activity against PLK1	superior effect of inhibiting PLK1 selectively as compared to other protein kinases
NC(=O)c1nn(-c2ccnc(Nc3ccccc3)c2)cc1OCc1ccccc1C(F)(F)F [Compound 13b]	847 nM		

Continued, in another order:

IC50 (PLK1(h))	inhibitory activity against PLK1 (in words) (PLK1(h))	Compound	selectivity for PLK1 over other protein kinases (in words) [1]
1310 nM		COc1ccccc1Nc1cc(-n2cc(OCc3ccccc3C(F)(F)F)c(C(N)=O)n2)ccn1 [Compound 14b]	
1020 nM		COc1ccccc1Nc1cc(-n2cc(OCc3ccccc3)c(C(N)=O)n2)ccn1 [Compound 14a]	
